Laboratory results taken from ChEMBL document CHEMBL5325396, “Discovery of Novel Acridane-Based Tubulin Polymerization Inhibitors with Anticancer and Potential Immunomodulatory Effects” (J Med Chem, 2023).

How the values were obtained:
[1] = test system: B16-F10; test: Inhibition of cell migration in mouse B16-F10 cells assessed as wound area ratio at 25 nM incubated for 24 hrs by wound healing assay relative to control; type: functional
[2] = test system: B16-F10; test: Induction of cell cycle arrest in mouse B16-F10 cells assessed as accumulation at S phase at 10 nM incubated for 24 hrs by PI staining based flow cytometry (reference value: 21.79 %); type: functional
[3] = test system: B16-F10; test: Induction of cell cycle arrest in mouse B16-F10 cells assessed as accumulation at S phase at 25 nM incubated for 24 hrs by PI staining based flow cytometry (reference value: 21.79 %); type: functional
[4] = test system: B16-F10; test: Induction of cell cycle arrest in mouse B16-F10 cells assessed as accumulation at G2 phase at 25 nM incubated for 24 hrs by PI staining based flow cytometry (reference value: 23.04 %); type: functional
[5] = test system: B16-F10; test: Induction of cell cycle arrest in mouse B16-F10 cells assessed as accumulation at S phase at 50 nM incubated for 24 hrs by PI staining based flow cytometry (reference value: 21.79 %); type: functional
[6] = test system: B16-F10; test: Induction of apoptosis in mouse B16-F10 cells assessed as early apoptotic cells at 10 nM incubated for 48 hrs by annexinV-FITC/PI staining based flow cytometry (reference value: 4.25 %); type: functional
[7] = test system: B16-F10; test: Induction of apoptosis in mouse B16-F10 cells assessed as necrotic cells at 10 nM incubated for 48 hrs by annexinV-FITC/PI staining based flow cytometry (reference value: 0.064 %); type: functional
[8] = test system: B16-F10; test: Induction of apoptosis in mouse B16-F10 cells assessed as early apoptotic cells at 25 nM incubated for 48 hrs by annexinV-FITC/PI staining based flow cytometry (reference value: 4.25 %); type: functional
[9] = test system: B16-F10; test: Induction of apoptosis in mouse B16-F10 cells assessed as necrotic cells at 25 nM incubated for 48 hrs by annexinV-FITC/PI staining based flow cytometry (reference value: 0.064 %); type: functional
[10] = Toxicity in C57 mouse allografted with mouse B16-F10 cells assessed as body weight loss at 10 mg/kg, ip administered consecutively for 14 days; type: organism-based; details: in vivo, 336 h, time 14 day
[11] = Toxicity in C57 mouse allografted with mouse B16-F10 cells assessed as pathological damage in heart at 10 mg/kg, ip administered consecutively for 14 days by H and E staining based analysis; type: organism-based; details: in vivo, 336 h, time 14 day
[12] = test system: B16-F10; test: Immunomodulatory activity in mouse B16-F10 cells allografted in C57 mouse assessed as increase in CD3-positive CD8-positive cells at 10 mg/kg, ip administered consecutively for 14 days in presence of NP-19 (reference value: 6.66 %); type: functional; details: time 14 day

COc1ccc2c(c1F)Cc1ccccc1N2C(=O)c1cc(OC)c(OC)c(OC)c1 gave a Ratio [1] of 26.05%, an Activity [2] of 22.85% and an Activity [3] of 38.12%. The Activity [4] was 43.79%, the Activity [5] was 24.31% and the Activity [6] was 5.7%. For the same compound, the Activity [7] was 0.133%, the Activity [8] was 22.7% and the Activity [9] was 0.268%. The Activity [10] was “Non-Toxic”, the Activity [11] was “Non-Toxic” and the Activity [12] was 19.5%.
